Patent US20040071777A1, “Solid dispersions of nitrate active principles” (priority 2000, published 2004)

What was measured:
Type in all cases: physicochemical
[1] = Dissolution rate of NCX4016, paddle method (F.U.X.), 1% sodium lauryl sulphate solution; details: 900 ml, 37° C., 150 rpm
Description: The dissolution rate of the solid dispersion produced in the example 3 has been compared with the dissolution rate of the pure NCX4016 in micronised form using the paddle method described in F.U.X., according to the following operating conditions T=37° C.±0.5° C., stirring rate: 150 rpm, dissolution means: 1% sodium lauryl sulphate solution, dissolution volume: 900 ml.
The quantity of NCX4016 released has been spectrophotometrically evaluated in continuous at a wavelength 232 nm.

[2] = Dissolution rate of NCX4016 under condition of supersaturation, paddle method, distilled water; details: after 5 minutes, from solid dispersion 2
Description: Three samples of microspheres have been exactly weighed so as to have a content of nitroaspirine of 30 mg. This quantity corresponds to about 4 times the solubility in water of the active principle.
The dissolution rate of the active principle from the above mentioned 3 solid dispersions has been compared with the dissolution rate of the pure active principle in micronized form, with the paddle method, described in F.U.X. using the following conditions:
dissolution means: distilled water
stirring rate: 100 r.p.m.
The quantity of NCX 4016 released has been evaluated spectrophotometrically in continuous at a wavelength 232 nm.
The samples have been taken by means of a peristaltic pump at 5 minutes intervals and for the total time of one hour.

[3] = Dissolution rate of NCX 1022, paddle method, distilled water with 1% w/v Tween 80; details: within one hour
Description: The dissolution rate of the active ingredient from the solid dispersion produced in Example 6 has been compared with the dissolution rate of the pure active ingredient, using the paddle method described in F.U.X. In detail, 40 mg of the solid dispersion or 5 mg of pure NCX 1022 have been placed in a thermostated container at 37° C.±0.5° C. in 500 ml of distilled water including 1% w/v of Tween 80 and kept under stirring at 100 rpm. The quantity of NCX 1022 dissolved has been spectrophotometrically determined in continuous at a wavelength of 240 nm.

Row | solubilisation [3] | Structure (SMILES) | percentage of active principle dissolved ([1]; 5 minutes) | percentage of active principle dissolved ([1]; 10 minutes) | percentage of active principle dissolved ([1]; 15 minutes) | percentage of active principle dissolved ([1]; 20 minutes) | percentage of active principle dissolved ([1]; 25 minutes) | percentage of active principle dissolved ([1]; 30 minutes) | percentage of active principle dissolved ([1]; 35 minutes) | percentage of active principle dissolved ([1]; 40 minutes) | percentage of active principle dissolved ([1]; 45 minutes) | percentage of active principle dissolved ([1]; 50 minutes) | percentage of active principle dissolved ([1]; 55 minutes) | percentage of active principle dissolved ([1]; 60 minutes) | quantity dissolved relative to the solubility of the active ingredient in the dissolution means [2]
1 | – | CC(=O)Oc1ccccc1C(=O)Oc1cccc(CO[N+](=O)[O-])c1 [NCX4016 micronized, 3-(nitroxymethyl)phenyl Ester of 2-acetoxybenzoic Acid] | 17.9% | 39.2% | 53.5% | 60.7% | 71.4% | 77% | 80.9% | 84.4% | 87% | 88.9% | 90.6% | 91.4% | about twice
2 | 4.3% | C[C@]12CCC(=O)C=C1CC[C@@H]1[C@@H]2[C@@H](O)C[C@@]2(C)[C@H]1CC[C@]2(O)C(=O)COC(=O)c1ccc(CO[N+](=O)[O-])cc1 [NCX 1022, hydroxycortisone 21-[(4′-nitroxymethyl)benzoate]] | – | – | – | – | – | – | – | – | – | – | – | – | –
